Reference: the NIST ThermoML archive (doi:10.1021/je500502a)

Key:
[1] = refractive index (Na D-line) (dimensionless); conditions: 101.33 kPa, Liquid, Standard Abbe refractometry
[2] = 101.33 kPa, Liquid; for electrical conductivity: PICO digital conductivity meter; for speed of sound: Sing-around technique in a fixed-path interferometer; for mass density: Vibrating tube method

CCn1cc[n+](C)c1.O=S(=O)([N-]S(=O)(=O)C(F)(F)F)C(F)(F)F
Conditions | electrical conductivity, [2] [S/m] | mass density, [2] [kg/m3] | refractive index, [1] | speed of sound, [2] [m/s]
293.15 K | 0.854 | 1521.47 | 1.42425 | 1251.2
298.15 K | 0.947 | 1516.39 | 1.42286 | 1240.3
303.15 K | 1.07 | 1511.32 | 1.42142 | 1229.4
308.15 K | 1.19 | 1506.27 | 1.41997 | 1218.5
313.15 K | 1.33 | 1501.23 | 1.4185 | 1207.8
318.15 K | 1.48 | 1496.21 | 1.41705 | 1197.2
323.15 K | 1.64 | 1491.21 | 1.41555 | 1186.7
